According to US20230227435A1, “SMALL MOLECULE MODULATORS OF IL-17” (LEO PHARMA A/S, priority 2020, published 2023):

These compounds were tested against T1, human IL-17AA (Homo sapiens, UniProt Q16552) (assay: IL-8 release assay in human epithelial keratinocytes adult (HEKa)). Settings: HEKa cells; 3 ng/mL HEK-human IL-17AA + 10 ng/mL human TNFalpha; 68-72 hours; IL-8 by HTRF; read-out: Rel EC50 IL-8 release assay.
T1 construct: host or cells: HEK (human embryonic kidney) cells
T1 sequence (Q16552 24-155) 1: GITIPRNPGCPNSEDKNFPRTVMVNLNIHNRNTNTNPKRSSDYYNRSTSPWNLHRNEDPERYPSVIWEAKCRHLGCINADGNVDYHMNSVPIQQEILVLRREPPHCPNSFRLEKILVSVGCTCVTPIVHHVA
T1 sequence (Q16552 24-155) 2: T1 sequence (Q16552 24-155) 1
Assay type: cell-based
Procedure: Example 8: IL-8 Release Assay in Human Epithelial Keratinocytes Adult (HEKa)
Keratinocytes were seeded at 3500 cells/well in 384-well ViewPlates (Perkin Elmer) in Epilife medium (Thermo Fisher) containing human keratinocyte growth supplement (HKGS) without hydrocortisone and incubated in a humid incubator at 37° C., 5% CO2, overnight. The following day growth medium was removed and 25 μl fresh Epilife medium was added. 75 nL test compound in100% DMSO was added into each well reserved for test compounds, by the use of acoustic pipetting. The remaining wells received an equal volume of DMSO only, as vehicle control, or terfenadine in DMSO, as a positive control for any cytotoxic compounds. Subsequently, another 25 μL Epilife medium was added to each well. Finally, wells containing test compounds and wells prepared to yield maximum stimulation received 25 μL of 9 ng/mL recombinant, human embryonic kidney cell (HEK)-derived human IL-17AA+30 ng/mL human TNF-alpha, in Epilife medium. Wells prepared to define 100% inhibition of IL-17 effects received 25 μL of 30 ng/mL human TNF-alpha alone, in Epilife medium. Final concentrations were 3 ng/mL HEK-human IL-17AA+10 ng/mL human TNFalpha (maximum stimulation) and 10 ng/mL human TNFalpha alone (100% inhibition, Emax), respectively. Cells were incubated for 68-72 hours in the incubator. IL-8 released from the cells was measured by the use of a commercial homogenous time-resolved fluorescence (HTRF) assay (CisBio). 2 μL cell culture supernatant was transferred to a 384-well Proxiplate. 5 μL HTRF reagent was added and the plates were incubated sealed in the dark for 3-22 hours at room temperature. Time-resolved fluorescence was read at 665 vs 620 nm, with excitation at 320 nm, and IL-8 levels were calculated as percent of controls. Reduction of the amount of secreted IL-8 indicates decreased IL-17 signaling. Concentration response curves were fitted by the use of a four-parameter logistic equation. Relative IC50 and Emax were reported from curves showing acceptable fit (r^2>0.9). Cytotoxicity was measured in the cell-containing Viewplates following addition of 7 μL PrestoBlue (Thermo Fisher) and incubation for 2.5-3 hours at room temperature, by measuring fluorescence at 615 nm (excitation at 535 nm). Fluorescence was directly proportional to the amount of metabolic activity. Reduction of fluorescence signal indicated cytotoxicity.
Compounds of the present invention were tested in the IL-8 release assay in human epithelial keratinocytes.

Compound	EC50 [nM]
CCn1nccc1-c1nnc(C(C(=O)Nc2ccc(-c3c(C)n[nH]c3C)cc2)C(C2CC2)C2CC2)[nH]1 (stereo not drawn) [Example 23, 3,3-dicyclopropyl-N-[4-(3,5-dimethyl-1H-pyrazol-4-yl)phenyl]-2-[5-(2-ethylpyrazol-3-yl)-4H-1,2,4-triazol-3-yl]propanamide]	59
Cc1nn(C)cc1-c1nnc(C(C(=O)Nc2ccc(-c3c(C)n[nH]c3C)cc2)C(C2CC2)C2CC2)[nH]1 (stereo not drawn) [Example 25, 3,3-dicyclopropyl-N-[4-(3,5-dimethyl-1H-pyrazol-4-yl)phenyl]-2-[5-(1,3-dimethylpyrazol-4-yl)-4H-1,2,4-triazol-3-yl]propanamide]	230
Cc1n[nH]c(C)c1-c1ccc(NC(=O)C(c2nnc(-c3ccnn3CC(F)(F)F)[nH]2)C(C2CC2)C2CC2)cc1 (stereo not drawn) [Example 26, 3,3-dicyclopropyl-N-[4-(3,5-dimethyl-1H-pyrazol-4-yl)phenyl]-2-[5-[2-(2,2,2-trifluoroethyl)pyrazol-3-yl]-4H-1,2,4-triazol-3-yl]propanamide]	24
Cc1n[nH]c(C)c1-c1ccc(NC(=O)C(c2nnc(-c3ccnn3C3CCC3)[nH]2)C(C2CC2)C2CC2)cc1 (stereo not drawn) [Example 27, 2-[5-(2-cyclobutylpyrazol-3-yl)-4H-1,2,4-triazol-3-yl]-3,3-dicyclopropyl-N-[4-(3,5-dimethyl-1H-pyrazol-4-yl)phenyl]propanamide]	32
Cc1n[nH]c(C)c1-c1ccc(NC(=O)C(c2nnc(-c3cccnc3)[nH]2)C(C2CC2)C2CC2)cc1 (stereo not drawn) [Example 31, 3,3-dicyclopropyl-N-[4-(3,5-dimethyl-1H-pyrazol-4-yl)phenyl]-2-[5-(3-pyridyl)-4H-1,2,4-triazol-3-yl]propanamide]	430
Cc1n[nH]c(C)c1-c1ccc(NC(=O)C(c2nnc(-c3c(C)noc3C)[nH]2)C(C2CC2)C2CC2)cc1 (stereo not drawn) [Example 32, 3,3-dicyclopropyl-2-[5-(3,5-dimethylisoxazol-4-yl)-4H-1,2,4-triazol-3-yl]-N-[4-(3,5-dimethyl-1H-pyrazol-4-yl)phenyl]propanamide]	910
Cc1n[nH]c(C)c1-c1ccc(NC(=O)C(c2nnc(-c3ccncc3)[nH]2)C(C2CC2)C2CC2)cc1 (stereo not drawn) [Example 33, 3,3-dicyclopropyl-N-[4-(3,5-dimethyl-1H-pyrazol-4-yl)phenyl]-2-[5-(4-pyridyl)-4H-1,2,4-triazol-3-yl]propanamide]	480
COc1ccc(-c2nnc(C(C(=O)Nc3ccc(-c4c(C)n[nH]c4C)cc3)C(C3CC3)C3CC3)[nH]2)cn1 (stereo not drawn) [Example 34, 3,3-dicyclopropyl-N-[4-(3,5-dimethyl-1H-pyrazol-4-yl)phenyl]-2-[5-(6-methoxy-3-pyridyl)-4H-1,2,4-triazol-3-yl]propanamide]	430
Cc1ccc(-c2nnc(C(C(=O)Nc3ccc(-c4c(C)n[nH]c4C)cc3)C(C3CC3)C3CC3)[nH]2)cn1 (stereo not drawn) [Example 36, 3,3-dicyclopropyl-N-[4-(3,5-dimethyl-1H-pyrazol-4-yl)phenyl]-2-[5-(6-methyl-3-pyridyl)-4H-1,2,4-triazol-3-yl]propanamide]	440
Cc1cnn(C)c1-c1nnc(C(C(=O)Nc2ccc(-c3c(C)n[nH]c3C)cc2)C(C2CC2)C2CC2)[nH]1 (stereo not drawn) [Example 37, 3,3-dicyclopropyl-N-[4-(3,5-dimethyl-1H-pyrazol-4-yl)phenyl]-2-[5-(2,4-dimethylpyrazol-3-yl)-4H-1,2,4-triazol-3-yl]propanamide]	380
Cc1n[nH]c(C)c1-c1ccc(NC(=O)C(c2nnc(-c3cnn(C)c3C)[nH]2)C(C2CC2)C2CC2)cc1 (stereo not drawn) [Example 38, 3,3-dicyclopropyl-N-[4-(3,5-dimethyl-1H-pyrazol-4-yl)phenyl]-2-[5-(1,5-dimethylpyrazol-4-yl)-4H-1,2,4-triazol-3-yl]propanamide]	360
Cc1n[nH]c(C)c1-c1ccc(NC(=O)C(c2nnc(-c3cnnn3C)[nH]2)C(C2CC2)C2CC2)cc1 (stereo not drawn) [Example 40, 3,3-dicyclopropyl-N-[4-(3,5-dimethyl-1H-pyrazol-4-yl)phenyl]-2-[5-(3-methyltriazol-4-yl)-4H-1,2,4-triazol-3-yl]propanamide]	860
Cc1n[nH]c(C)c1-c1ccc(NC(=O)C(c2nnc(-c3cnoc3C)[nH]2)C(C2CC2)C2CC2)cc1 (stereo not drawn) [Example 41, 3,3-dicyclopropyl-N-[4-(3,5-dimethyl-1H-pyrazol-4-yl)phenyl]-2-[5-(5-methylisoxazol-4-yl)-4H-1,2,4-triazol-3-yl]propanamide]	> 3250
Cc1nocc1-c1nnc(C(C(=O)Nc2ccc(-c3c(C)n[nH]c3C)cc2)C(C2CC2)C2CC2)[nH]1 (stereo not drawn) [Example 42, 3,3-dicyclopropyl-N-[4-(3,5-dimethyl-1H-pyrazol-4-yl)phenyl]-2-[5-(3-methylisoxazol-4-yl)-4H-1,2,4-triazol-3-yl]propanamide]	470
Cc1n[nH]c(C)c1-c1ccc(NC(=O)C(c2nnc(-c3ccnn3C(C)C)[nH]2)C(C2CC2)C2CC2)cc1 (stereo not drawn) [Example 43, 3,3-dicyclopropyl-N-[4-(3,5-dimethyl-1H-pyrazol-4-yl)phenyl]-2-[5-(2-isopropylpyrazol-3-yl)-4H-1,2,4-triazol-3-yl]propanamide]	66
Cc1n[nH]c(C)c1-c1ccc(NC(=O)C(c2nnc(-c3ccnn3C3CC3)[nH]2)C(C2CC2)C2CC2)cc1 (stereo not drawn) [Example 44, 3,3-dicyclopropyl-2-[5-(2-cyclopropylpyrazol-3-yl)-4H-1,2,4-triazol-3-yl]-N-[4-(3,5-dimethyl-1H-pyrazol-4-yl)phenyl]propanamide]	77

More lines, in order of falling EC50, values ahead:

EC50 [nM]	Compound
1400	Cc1n[nH]c(C)c1-c1ccc(NC(=O)C(c2nnc(-c3c(C)n[nH]c3C)[nH]2)C(C2CC2)C2CC2)cc1 (stereo not drawn) [Example 29, 3,3-dicyclopropyl-N-[4-(3,5-dimethyl-1H-pyrazol-4-yl)phenyl]-2-[5-(3,5-dimethyl-1H-pyrazol-4-yl)-4H-1,2,4-triazol-3-yl]propanamide]
690	Cc1n[nH]c(C)c1-c1ccc(NC(=O)C(c2nnc(-c3ccn[nH]3)[nH]2)C(C2CC2)C2CC2)cc1 (stereo not drawn) [Example 24, 3,3-dicyclopropyl-N-[4-(3,5-dimethyl-1H-pyrazol-4-yl)phenyl]-2-[5-(1H-pyrazol-5-yl)-4H-1,2,4-triazol-3-yl]propanamide]
500	Cc1n[nH]cc1-c1nnc(C(C(=O)Nc2ccc(-c3c(C)n[nH]c3C)cc2)C(C2CC2)C2CC2)[nH]1 (stereo not drawn) [Example 39, 3,3-dicyclopropyl-N-[4-(3,5-dimethyl-1H-pyrazol-4-yl)phenyl]-2-[5-(3-methyl-1H-pyrazol-4-yl)-4H-1,2,4-triazol-3-yl]propanamide]
430	Cc1n[nH]c(C)c1-c1ccc(NC(=O)C(c2nnc(-c3ccn(C)c(=O)c3)[nH]2)C(C2CC2)C2CC2)cc1 (stereo not drawn) [Example 22, 3,3-dicyclopropyl-N-[4-(3,5-dimethyl-1H-pyrazol-4-yl)phenyl]-2-[5-(1-methyl-2-oxo-4-pyridyl)-4H-1,2,4-triazol-3-yl]propanamide]
270	Cc1n[nH]c(C)c1-c1ccc(NC(=O)C(c2nnc(-c3cnn(C(C)C)c3)[nH]2)C(C2CC2)C2CC2)cc1 (stereo not drawn) [Example 30, 3,3-dicyclopropyl-N-[4-(3,5-dimethyl-1H-pyrazol-4-yl)phenyl]-2-[5-(1-isopropylpyrazol-4-yl)-4H-1,2,4-triazol-3-yl]propanamide]
160	COc1cc(-c2nnc(C(C(=O)Nc3ccc(-c4c(C)n[nH]c4C)cc3)C(C3CC3)C3CC3)[nH]2)ccn1 (stereo not drawn) [Example 35, 3,3-dicyclopropyl-N-[4-(3,5-dimethyl-1H-pyrazol-4-yl)phenyl]-2-[5-(2-methoxy-4-pyridyl)-4H-1,2,4-triazol-3-yl]propanamide]
140	Cc1cc(-c2nnc(C(C(=O)Nc3ccc(-c4c(C)n[nH]c4C)cc3)C(C3CC3)C3CC3)[nH]2)ccn1 (stereo not drawn) [Example 28, 3,3-dicyclopropyl-N-[4-(3,5-dimethyl-1H-pyrazol-4-yl)phenyl]-2-[5-(2-methyl-4-pyridyl)-4H-1,2,4-triazol-3-yl]propanamide]
22	Cc1n[nH]c(C)c1-c1ccc(NC(=O)C(c2nnc(-c3ccnn3CC3CC3)[nH]2)C(C2CC2)C2CC2)cc1 (stereo not drawn) [Example 45, 3,3-dicyclopropyl-2-[5-[2-(cyclopropylmethyl)pyrazol-3-yl]-4H-1,2,4-triazol-3-yl]-N-[4-(3,5-dimethyl-1H-pyrazol-4-yl)phenyl]propanamide]
